7 molecules from patent US4315022A, “Terminal amino prostaglandin analogues” (Beecham Group Limited, priority 1979, dated 1982) can be followed below.

Assay [1] relates to 5-hydroxytryptamine induced bronchoconstriction. Briefly: Inhibition of 5-hydroxytryptamine induced bronchoconstriction in anaesthetised, artificially respired guinea pig (Konzett-Rossler preparation). Type of assay: in vivo. The note with it: Cavia porcellus, intravenous. On the procedure: 1. The compounds were examined for their ability to inhibit 5-hydroxytryptamine induced bronchoconstriction in the anaesthetised, artificially respired guinea pig (Konzett-Rossler preparation). The compounds were administered intravenously.

Assay [2] has as its system bronchoconstriction induced by an histamine aerosol. Briefly: Protection of conscious guinea pigs against bronchoconstriction induced by histamine aerosol (Herxheimer test). In kind it is in vivo, guinea pig. As to conditions: 10 μg/ml, 2 minutes after dosing. As to the method: 2. The compounds were examined for their ability to protect conscious guinea pigs against bronchoconstriction induced by an histamine aerosol (Herxheimer test). In these experiments the compounds were administered by aerosol.

One may read the ED50 as the dose that gives a 50% effect, or the effect in half of the subjects. `CCCCCCC(C)(O)CCN1C(=O)N(C)C(=O)C1CCCCCCCN` (stereo not drawn) [Compound 1, 1-(3'-hydroxy-3'-methyl-n-nonyl)-3-methyl-5-(7"-amino-n-heptyl)-hydantoin]: the ED50 in assay [1] was 0.0023 mg/kg. In the case of `CCCCCCC(C)(O)CCN1C(=O)N(C)C(=O)C1CCCCCCC(N)=NO` (stereo not drawn) [Compound 2, 1-(3'-hydroxy-3'-methyl-n-nonyl)-3-methyl-5-(6"-amidoxyl-n-hexyl)-hydantoin], the “increase in pre-convulsive coughing time” value in assay [2] was found to be 47.5%. The molecule also gave an ED50 in assay [1] of 0.032 mg/kg.

In the case of `CCCCCCC(C)(O)CCN1C(=O)N(C)C(=O)C1CCCCCCC(N)=O` (stereo not drawn) [Compound 3, 1-(3'-hydroxy-3'-methyl-n-nonyl)-3-methyl-5-(6"-amidoyl-n-hexyl) hydantoin], the “increase in pre-convulsive coughing time” value in assay [2] turned out to be 107%. Moreover, the ED50 in assay [1] stood at 0.108 mg/kg. Regarding `CCCCCCC(C)(O)CCN1C(=O)N(C)C(=O)C1CCCCCCCNCCC(=O)OC` (stereo not drawn) [Compound 5, 1-(3'-hydroxy-3'-methyl-n-nonyl)-3-methyl-5-(7"-(2'''-methoxycarbonylethyl)amino-n-heptyl) hydantoin], in assay [1], the ED50 worked out at 0.095 mg/kg. In assay [1], `CCCCCCC(C)(O)CCN1C(=O)N(C)C(=O)C1CCCCCCCN(CCC(=O)OC)CCC(=O)OC` (stereo not drawn) [Compound 6] gave an ED50 of 0.079 mg/kg. For the molecule `CCCCCCC(C)(O)CCN1C(=O)N(C)C(=O)C1CCCCCCCNCC(=O)OC` (stereo not drawn) [Compound 9, 1-(3'-hydroxy-3'-methyl-n-nonyl)-3-methyl-5-5-[7'-(N-methoxycarbonylmethyl)amino-n-heptyl]-hydantoin], the ED50 in assay [1] was found to be 0.066 mg/kg. `CCCCCCC(C)(O)CCN1C(=O)N(C)C(=O)C1CCCCCCCN(CC(=O)OC)CC(=O)OC` (stereo not drawn) [Compound 10, 1-(3'-hydroxy-3'-methyl-n-nonyl)-3-methyl-5-{7'-[N,N-bis(methoxycarbonylmethyl)amino]-n-heptyl}hydantoin]: in assay [1], the 50% effect level (ED50) was put at a dose of 0.0805 mg/kg.
